Reference: patent publication US20220241285A1, “ORAL CAPSULE AND PREPARATION METHOD THEREFOR” (BEIGENE SWITZERLAND GMBH, priority 2019, published 2022)

What was measured:
Assay type in all cases: physicochemical
[1] = Solubility / biopharmaceutical classification
[2] = Hygroscopicity of the active pharmaceutical ingredient; details: active pharmaceutical ingredient (API)
[3] = XRPD of the mixed powder in the study on the mixing process (crystal form stability); details: mixed powder of Example 1, mixing process

class of the biopharmaceutical classification system [1]: class II
solubility [1]: pH-dependent
hygroscopicity [2]: slightly hygroscopic
crystal form of zanubrutinib in the process (XRPD) [3]: remained unchanged
SMILES: C=CC(=O)N1CCC([C@@H]2CCNc3c(C(N)=O)c(-c4ccc(Oc5ccccc5)cc4)nn32)CC1 [zanubrutinib, (S)-7-[4-(1-acryloylpiperidine)]-2-(4-phenoxyphenyl)-4,5,6,7-tetrahydropyrazolo[1,5-a]pyrimidine-3-carboxamide]
